# Measured values from PubChem BioAssay AID449762 (Southern Research Specialized Biocontainment Screening …, 2010).
# pIC50: −log10 of the molar value. Inconclusive results are not listed.
# Test system: M. tuberculosis H37Rv growth inhibition, 7H9 media
# Experiment: M. tuberculosis growth inhibition, HTS (AID 449762);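 further: bacterial growth assessed after seven days of incubation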
# Conditions: not given
row,SMILES,pIC50
1,COc1cccc(COC(=O)c2ccc3c(=O)n4c(nc3c2)CCC4)c1OC,4.68
2,Cc1cc(CC(C)C)n(-c2nc3ccccc3c(=O)n2OCC(N)=O)n1,5.41
3,Cc1ccc(-n2c(C)cc(/C=N/NC(N)=S)c2C)cc1,4.89
4,O=C(C[n+]1ccc(C(=O)N/N=C/c2ccc(O)cc2)cc1)c1ccccc1,5.35
5,COC(=O)CCc1sc(Nc2ccc(Br)cc2)nc1-c1ccc(OC)cc1,4.59
6,C=CCc1c(C)nc(SC)nc1Nc1ccc(C(C)=O)cc1,4.63
7,Cc1ccc(Nc2nc(N)nc(CN3CCc4ccccc4C3)n2)cc1,5.66
8,CCOC(=O)N1CCc2c(sc(NC(=O)c3ccc(Cl)s3)c2C(N)=O)C1,5.21
9,Cc1ccc(OC/C(O)=C(\C#N)c2nc3ccccc3s2)cc1,4.68
10,C=C1CCC[C@]2(C)C[C@H]3OC(=O)C(CNC(C)CCCC(C)C)[C@H]3CC12 (stereo partly drawn),4.65
11,Cc1ccc2nc(-c3cccc(Br)c3)cc(C(=O)NC3=NCCS3)c2c1,4.85
12,CC(=O)OC1=Cc2c(ccc3ccc(=O)oc23)OC1(C)C,4.85
13,COc1cc(C(=O)N/N=C/c2cc([N+](=O)[O-])cs2)cc(OC)c1OC,> 6.70
14,CC(/C=N/NC(=O)c1cc(-c2ccc3ccccc3c2)n[nH]1)=C\c1ccco1,4.54
15,Cc1c(CN2CCC(CO)(Cc3cccc(C(F)(F)F)c3)CC2)c2ccccc2n1C,4.69
16,O=C1CN(CC(=O)N2CCCCC2)c2ccccc2O1,4.63
17,O=c1c2c(-c3ccccc3)csc2ncn1/N=C/c1ccc(O)c([N+](=O)[O-])c1,4.87
18,O=C(/C=C/c1cccnc1)c1cccc(O)c1,5.19
19,c1ccc(CCN2CCN(c3ncnc4c3cnn4-c3ccccc3)CC2)cc1,4.67
20,NC(N)=Nc1nc(-c2ccccc2)c2ccccc2n1,4.17
21,CCOc1ccc(NCc2cccn2-c2nnc(N3CCC(C(=O)NCCCN4C(C)CCCC4C)CC3)s2)cc1 (stereo not drawn),4.14
22,Cc1ccc(C)c(NNC(N)=S)c1,5.19

row,SMILES,pIC50
1,Cc1ccc(C(=O)O/N=C(\N)c2ccc(Br)cc2)cc1C,4.00
2,Cc1ccc(-c2ccnc(=S)[nH]2)cc1,4.35
3,c1ccc(-n2cnc3cc(NCc4cccs4)ccc32)cc1,4.07
4,CCn1c(NC(=O)c2nn(C)cc2Br)nc2ccccc21,5.36
5,C=C(CCC(=O)c1ccccc1)C(=O)c1ccccc1,5.14
6,CCCCOc1ccc(Br)cc1/C(C)=N/NC1=NCCN1,4.68
7,Cc1ccc(C)c(S(=O)(=O)N2CCC(c3nc4c(nnn4Cc4ccc5c(c4)OCCO5)c(=O)[nH]3)CC2)c1,4.64
8,COc1ccc(-c2cn(Cc3ccc(C(=O)NCc4ccc(C)cc4)cc3)c(C(C)N)n2)cc1 (stereo not drawn),4.33
9,O=C(CCl)Nc1nccs1,5.70
10,Cc1cc(C)n(-c2cc(C(C)(C)C)nc3c(-c4ccccc4)cnn23)n1,4.56
11,Nc1n[nH]c(C2CC2)c1N=Nc1ccc(Cl)cc1,4.71
12,CSC(=S)NCc1cccnc1,4.94
13,CC(C)NC(=O)c1sc(=S)n2c1[nH]c(=O)c1ccc(C(=O)NCCc3ccc(Cl)cc3)cc12,6.52
14,COC(=O)C1C2c3ccccc3OC1(C)N=c1s/c(=C/c3cnn(C)c3C)c(=O)n12 (stereo not drawn),6.01
15,COc1ccc(-c2csc3nc(-c4ccccc4OC)oc(=O)c23)cc1,> 6.70
16,Cn1cccc1/C=C1/C(=O)NC(=S)N(Cc2ccc(F)cc2)C1=O,4.62
17,C/C(CCc1ccc2c(c1)OCO2)=N\NC(=S)NC(C)C,4.45
18,Cc1ccc(NC(=O)CNCc2cccs2)cc1Br,4.00
19,O=C(Nc1nc2ccc(F)cc2s1)C1CCN(S(=O)(=O)c2cc([N+](=O)[O-])ccc2Cl)CC1,4.96
20,CC(C)C(=O)N1CCC2(CC1)Oc1ccc(Cl)cc1C(=O)C21CC(c2ccccc2)=NO1 (stereo not drawn),4.17
21,Cc1oc2c(c1C(=O)NCc1cccnc1)C(=O)c1ccccc1C2=O,5.01
22,COc1ccc(NC(=O)NC(C)C2CC3CCC2C3)cc1 (stereo not drawn),4.63

row,SMILES,pIC50
1,CS/C(Nc1cc(Cl)ccc1Cl)=C(/C#N)C(=O)c1ccco1,5.44
2,CC1(C)CC(=O)c2c(O)cc(OCc3ccc(Br)cc3)cc2O1,4.38
3,COc1cccc(C2C3=C(N=c4s/c(=C\c5cccc(O)c5)c(=O)n42)c2ccccc2CC3)c1OC (stereo not drawn),4.63
4,O=C(CCl)NN=C(c1ccccc1)c1ccccc1,6.28
5,COc1ccc(N2CCN(C(=O)c3ccc(CNc4c(N5CCOCC5)c(=O)c4=O)cc3)CC2)cc1,5.62
6,Cc1ccc(OCCN2CCN(c3ncnc4sc(C)c(C)c34)CC2)cc1,4.03
7,CCOC(=O)c1nnc(-c2ccccc2)nc1Sc1ccccc1Cl,4.68
8,O=C(CCn1c(=O)c2cccn2c2cccnc21)N1CCN(c2cccc(Cl)c2)CC1,4.51
9,O=c1c(Cl)c2oc3ccccc3nc-2c2ccccc12,5.03
10,O=C(NN=C1c2ccccc2-c2ccccc21)c1cccc(Br)c1,6.55
11,COc1ccc(CN2CCN(C(c3ccc(F)cc3)c3ccc(F)cc3)CC2)c(OC)c1OC,4.63
12,CCCCCCCCn1cnc2c(N)c(C)c(C)cc21,4.43
13,CC(C)C(=O)Nc1cccc(-c2nc3ccccc3c(=O)o2)c1,4.35
14,CCCCCC(=O)NNC(=S)NC(=O)c1ccc([N+](=O)[O-])cc1,5.87
15,Cc1ccn2nc(S(=O)(=O)Nc3c(F)cccc3F)nc2n1,5.16
16,CCn1c2ccccc2c2cc(CNCc3ccc(OC)cc3OC)ccc21,4.91
17,CCc1ccc(Nc2n[n+](C)c(-c3ccncc3)s2)cc1,4.34
18,CCc1c(C)sc2nc3c(C(=O)N4CCOCC4)cc(C(=O)c4cc(F)ccc4O)cn3c(=O)c12,4.33
19,CC1=NN(c2ccccc2)C(=O)C1C(=O)c1ccccc1 (stereo not drawn),4.59
20,O=C(CN1CCN(c2nc(-c3ccc(F)cc3)cs2)CC1)NCc1ccc2c(c1)OCO2,4.37

# Same assay, conditions: measured here: IC90 growth inhibition
row,SMILES,IC90 [µM]
1,COc1cccc(COC(=O)c2ccc3c(=O)n4c(nc3c2)CCC4)c1OC,50.6
2,Cc1cc(CC(C)C)n(-c2nc3ccccc3c(=O)n2OCC(N)=O)n1,12.7
3,Cc1ccc(-n2c(C)cc(/C=N/NC(N)=S)c2C)cc1,24.6
4,O=C(C[n+]1ccc(C(=O)N/N=C/c2ccc(O)cc2)cc1)c1ccccc1,> 100
5,COC(=O)CCc1sc(Nc2ccc(Br)cc2)nc1-c1ccc(OC)cc1,44.1
6,C=CCc1c(C)nc(SC)nc1Nc1ccc(C(C)=O)cc1,32.6
7,Cc1ccc(Nc2nc(N)nc(CN3CCc4ccccc4C3)n2)cc1,8.89
8,CCOC(=O)N1CCc2c(sc(NC(=O)c3ccc(Cl)s3)c2C(N)=O)C1,20.5
9,Cc1ccc(OC/C(O)=C(\C#N)c2nc3ccccc3s2)cc1,34
10,C=C1CCC[C@]2(C)C[C@H]3OC(=O)C(CNC(C)CCCC(C)C)[C@H]3CC12 (stereo partly drawn),24.2
11,Cc1ccc2nc(-c3cccc(Br)c3)cc(C(=O)NC3=NCCS3)c2c1,28.9
12,CC(=O)OC1=Cc2c(ccc3ccc(=O)oc23)OC1(C)C,31.6
13,COc1cc(C(=O)N/N=C/c2cc([N+](=O)[O-])cs2)cc(OC)c1OC,25.9
14,CC(/C=N/NC(=O)c1cc(-c2ccc3ccccc3c2)n[nH]1)=C\c1ccco1,51.2
15,Cc1c(CN2CCC(CO)(Cc3cccc(C(F)(F)F)c3)CC2)c2ccccc2n1C,28.9
16,O=C1CN(CC(=O)N2CCCCC2)c2ccccc2O1,27.4
17,O=c1c2c(-c3ccccc3)csc2ncn1/N=C/c1ccc(O)c([N+](=O)[O-])c1,52.9
18,O=C(/C=C/c1cccnc1)c1cccc(O)c1,14.8
19,c1ccc(CCN2CCN(c3ncnc4c3cnn4-c3ccccc3)CC2)cc1,43
20,NC(N)=Nc1nc(-c2ccccc2)c2ccccc2n1,87.9
21,CCOc1ccc(NCc2cccn2-c2nnc(N3CCC(C(=O)NCCCN4C(C)CCCC4C)CC3)s2)cc1 (stereo not drawn),90.9
22,Cc1ccc(C)c(NNC(N)=S)c1,15.6

row,SMILES,IC90 [µM]
1,Cc1ccc(C(=O)O/N=C(\N)c2ccc(Br)cc2)cc1C,> 100
2,Cc1ccc(-c2ccnc(=S)[nH]2)cc1,> 100
3,c1ccc(-n2cnc3cc(NCc4cccs4)ccc32)cc1,97.2
4,CCn1c(NC(=O)c2nn(C)cc2Br)nc2ccccc21,12.7
5,C=C(CCC(=O)c1ccccc1)C(=O)c1ccccc1,18.7
6,CCCCOc1ccc(Br)cc1/C(C)=N/NC1=NCCN1,33.3
7,Cc1ccc(C)c(S(=O)(=O)N2CCC(c3nc4c(nnn4Cc4ccc5c(c4)OCCO5)c(=O)[nH]3)CC2)c1,> 100
8,COc1ccc(-c2cn(Cc3ccc(C(=O)NCc4ccc(C)cc4)cc3)c(C(C)N)n2)cc1 (stereo not drawn),53.2
9,O=C(CCl)Nc1nccs1,4.71
10,Cc1cc(C)n(-c2cc(C(C)(C)C)nc3c(-c4ccccc4)cnn23)n1,34.7
11,Nc1n[nH]c(C2CC2)c1N=Nc1ccc(Cl)cc1,41
12,CSC(=S)NCc1cccnc1,34.7
13,CC(C)NC(=O)c1sc(=S)n2c1[nH]c(=O)c1ccc(C(=O)NCCc3ccc(Cl)cc3)cc12,0.49
14,COC(=O)C1C2c3ccccc3OC1(C)N=c1s/c(=C/c3cnn(C)c3C)c(=O)n12 (stereo not drawn),13.1
15,COc1ccc(-c2csc3nc(-c4ccccc4OC)oc(=O)c23)cc1,24.1
16,Cn1cccc1/C=C1/C(=O)NC(=S)N(Cc2ccc(F)cc2)C1=O,> 100
17,C/C(CCc1ccc2c(c1)OCO2)=N\NC(=S)NC(C)C,48.4
18,Cc1ccc(NC(=O)CNCc2cccs2)cc1Br,> 100
19,O=C(Nc1nc2ccc(F)cc2s1)C1CCN(S(=O)(=O)c2cc([N+](=O)[O-])ccc2Cl)CC1,16
20,CC(C)C(=O)N1CCC2(CC1)Oc1ccc(Cl)cc1C(=O)C21CC(c2ccccc2)=NO1 (stereo not drawn),> 100
21,Cc1oc2c(c1C(=O)NCc1cccnc1)C(=O)c1ccccc1C2=O,13.9
22,COc1ccc(NC(=O)NC(C)C2CC3CCC2C3)cc1 (stereo not drawn),27.1

row,SMILES,IC90 [µM]
1,CS/C(Nc1cc(Cl)ccc1Cl)=C(/C#N)C(=O)c1ccco1,40.2
2,CC1(C)CC(=O)c2c(O)cc(OCc3ccc(Br)cc3)cc2O1,67.3
3,COc1cccc(C2C3=C(N=c4s/c(=C\c5cccc(O)c5)c(=O)n42)c2ccccc2CC3)c1OC (stereo not drawn),27.1
4,O=C(CCl)NN=C(c1ccccc1)c1ccccc1,1.89
5,COc1ccc(N2CCN(C(=O)c3ccc(CNc4c(N5CCOCC5)c(=O)c4=O)cc3)CC2)cc1,5.17
6,Cc1ccc(OCCN2CCN(c3ncnc4sc(C)c(C)c34)CC2)cc1,> 100
7,CCOC(=O)c1nnc(-c2ccccc2)nc1Sc1ccccc1Cl,49.2
8,O=C(CCn1c(=O)c2cccn2c2cccnc21)N1CCN(c2cccc(Cl)c2)CC1,41.8
9,O=c1c(Cl)c2oc3ccccc3nc-2c2ccccc12,11.9
10,O=C(NN=C1c2ccccc2-c2ccccc21)c1cccc(Br)c1,> 100
11,COc1ccc(CN2CCN(C(c3ccc(F)cc3)c3ccc(F)cc3)CC2)c(OC)c1OC,26.3
12,CCCCCCCCn1cnc2c(N)c(C)c(C)cc21,60
13,CC(C)C(=O)Nc1cccc(-c2nc3ccccc3c(=O)o2)c1,> 100
14,CCCCCC(=O)NNC(=S)NC(=O)c1ccc([N+](=O)[O-])cc1,4.43
15,Cc1ccn2nc(S(=O)(=O)Nc3c(F)cccc3F)nc2n1,9.3
16,CCn1c2ccccc2c2cc(CNCc3ccc(OC)cc3OC)ccc21,14.1
17,CCc1ccc(Nc2n[n+](C)c(-c3ccncc3)s2)cc1,51.3
18,CCc1c(C)sc2nc3c(C(=O)N4CCOCC4)cc(C(=O)c4cc(F)ccc4O)cn3c(=O)c12,> 100
19,CC1=NN(c2ccccc2)C(=O)C1C(=O)c1ccccc1 (stereo not drawn),53
20,O=C(CN1CCN(c2nc(-c3ccc(F)cc3)cs2)CC1)NCc1ccc2c(c1)OCO2,55.8
